Data set [1] deals with T1, AChE (Electrophorus electricus, UniProt O42275).
T1 construct: purchased Sigma-Aldrich
The data set can be described thus: Enzyme kinetic analysis against AChE (reversibility, Lineweaver-Burk, Ki). In kind it is biochemical. The note with it: for type of AChE inhibition: Lineweaver-Burk plots; for Ki: Lineweaver-Burk secondary plots, substrate ATCI, read-out: Ki (inhibition constant) against AChE; for reversibility of AChE inhibition: plots of initial velocity versus enzyme concentration. The procedure: The kinetic characteristics of two active compounds, 11a and 11g, against AChE was also studied to elucidate the type of inhibition and the inhibition constant. The analysis was carried out by measuring the enzyme’s activity at different concentrations of substrate (0 μM–10.0 μM). The acquired inhibition data were further depicted with the Lineweaver–Burk method followed by inhibition constant (Ki) calculation using Lineweaver–Burk secondary plots. […] This pattern of inhibition is usually the result of a combination of partially competitive and non-competitive inhibitors.
In order to investigate the reversibility of compounds 11a and 11g to AChE, different concentrations of compounds (0−10 μM) and five different concentrations of AChE (0.025−0.10 U/mL) were measured at 412 nm after a 2 min incubation at 37 °C. Values were measured in triplicate for the velocity and enzyme concentration profiles. Velocity (V) was calculated from the measured data as follows: V = (Ac−Ai)/2, where Ai and Ac represent the change in absorbance in the presence and absence of […], respectively. All data were analyzed by OriginPro 2021.
For each experiment, the reaction was started by adding substrate and the progression curve was recorded at 412 nm after two minutes of incubation at 37°C. […] The slopes of these inverse plots were then plotted against the compound concentrations in the correlation analysis, and Ki was determined as the intercept on the negative x-axis. All rate measurements were performed in triplicate and data analysis was performed using OriginPro 2021.

Data set [2] in a line: Water solubility, shake-flask method. The data set is classed as physicochemical. The following applies: thermodynamic from solid, double distilled water, 37 °C. The procedure: Water solubility is regarded as another vital descriptor for BBB penetration, where high solubility is considered as a prerequisite for a rapid absorption and higher bioavailability of a drug candidate. […] With this experiment, we have obtained their data as 0.62, 3.03, 12.9, and […] for the selected compounds 11a, 11g, 12a, and 12c, respectively.
Solubility was determined by using the shake-flask method.The desired amount of the compound was placed in a test tube, to which an appropriate amount of double distilled water was introduced. The suspension was agitated on a plate shaker at 37 °C for 24 h. After centrifuging, HPLC analyses of supernatant was performed. The solubility of the compound was obtained from its HPLC result.

Data set [3] can be described thus: Lipophilicity (LogP) determination, shake-flask octanol/water. The following applies: HPLC, read-out: LogP (experimental). The data set is classed as physicochemical. From the text:
For anti-Alzheimer drug candidates, the ability to cross the blood–brain barrier (BBB) and to enter the central nervous system (CNS) is crucial to achieve their pharmacological target binding and activity, and CNS drugs require more strict rules for a successful penetration. […] Besides, for molecules to penetrate the BBB, a topological polar surface area (TPSA) value less than 90 Å ^2 is usually needed and molecules with a TPSA of greater than 120 Å ^2 tend to be poor in permeating cell membranes. Therefore, the molar mass (MW), LogP, and TPSA of all target compounds were simulated by ChemDraw 19.0 (Table 1). […] Because LogP was thought as an important physicochemical parameter to evaluate the ability to cross BBB, the LogP of some compounds was further assessed in experiments.
The lipophilicities of test compounds were determined using the traditional shake-flask method. A solid test compound (2 mg) was placed into a 10 mL pear-shaped flask, and measured volumes of octanol and water were added for logP determination. The resulting biphasic mixture was stirred for 24 h and then left without stirring for 12 h to allow phase separation. The test compound in each phase was sampled and quantitated using HPLC. The areas under the peaks were divided and the log taken.

Data set [4] addresses T2, AChE (EC 3.1.1.7, from electric eel) (Electrophorus electricus, UniProt O42275).
T2 construct: purchased Sigma-Aldrich
The experiment in a line: biochemical. The following applies: for IC50: means ± SD, at least three independents. The procedure:
(§1) AChE and BChE inhibitory activities of compounds were determined by using a modified Ellman’s method. AChE (EC 3.1.1.7, from electric eel), BChE (EC 3.1.1.8, from horse serum), 5,5′-dithiobis(2nitrobenzoic acid) (DTNB), acetylthiocholine iodide (ATCI) and butyrylthiocholine iodide (BTCI) were purchased from Sigma-Aldrich. The reaction mixture contained 140 μL of 100 mM sodium phosphate buffer (pH 8.0), the enzyme solution (either 0.05 U/mL of AChE, 20 μL; or 0.05 U/mL of BChE, 20 μL), and test compound (20 μL). Assayed solutions of test compounds were pre-incubated with corresponding ChE at 25 °C for 15 min. The reaction was initiated by the addition of 10 μL of 10 mM DTNB and 10 μL of 7.5 mM substrate (ATCI or BTCI). The activity was determined by measuring the increase in absorbance at 412 nm at 37 °C in 10 min intervals using a microplate reader. The percentage of inhibition was calculated from the measured data as follows: (Ac − Ai)/Ac × 100%, where Ai and Ac represent the change in the absorbance in the presence of inhibitor and without inhibitor, respectively.

Data set [5] deals with T3, BChE (EC 3.1.1.8, from horse serum) (Equus caballus, UniProt P81908).
T3 construct: BChE (EC 3.1.1.8, from horse serum); purchased Sigma-Aldrich; host or cells: horse serum
T3 sequence (P81908 whole entry): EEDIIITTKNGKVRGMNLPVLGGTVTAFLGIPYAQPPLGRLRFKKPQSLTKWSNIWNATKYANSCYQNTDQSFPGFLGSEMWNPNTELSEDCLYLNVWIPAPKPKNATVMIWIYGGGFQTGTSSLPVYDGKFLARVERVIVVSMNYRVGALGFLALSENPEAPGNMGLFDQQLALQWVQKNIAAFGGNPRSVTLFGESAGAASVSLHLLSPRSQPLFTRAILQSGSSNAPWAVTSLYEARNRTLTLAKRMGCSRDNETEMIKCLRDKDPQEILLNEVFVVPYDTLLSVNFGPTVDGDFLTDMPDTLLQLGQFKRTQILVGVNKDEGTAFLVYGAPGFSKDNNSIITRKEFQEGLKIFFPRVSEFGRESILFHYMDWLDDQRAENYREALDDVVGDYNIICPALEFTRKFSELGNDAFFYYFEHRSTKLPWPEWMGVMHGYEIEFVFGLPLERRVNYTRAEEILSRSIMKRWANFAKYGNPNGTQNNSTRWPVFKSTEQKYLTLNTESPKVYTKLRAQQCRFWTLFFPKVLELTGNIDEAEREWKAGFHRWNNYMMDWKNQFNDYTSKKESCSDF
The experiment in a line: biochemical. The following applies: means ± SD, at least three independents. The procedure: as §1

Data set [6] in a line: ABTS radical-scavenging assay. The procedure: ABTS radical-scavenging activity was measured by using the modified method. The test compound was dissolved in ethanol as 1.0 mg/mL, 0.5 mg/mL, 0.25 mg/mL, 0.125 mg/mL, 0.0625 mg/mL, and 0.03125 mg/mL. Similarly, the ethanol solution of Trolox with the same concentration gradient was prepared as a positive control. ABTS solution at a concentration of 7 mM and potassium persulfate solution at a concentration of 2.45 mM with distilled water were also prepared. The ABTS solution and the potassium persulfate solution were mixed in equal amounts, and then placed in the dark and protected from light for 12 h. The ABTS standard solution was diluted with ethanol until the absorbance value at 734 nm was in the range of 0.7 ± 0.05. Then, 3900 µL of ABTS cation solution was mixed with 100 µL of test compound at different concentrations. The samples were kept in the dark for 10 min at room temperature and absorption was measured at 734 nm on a spectrophotometer. The percentage of ABTS radical-scavenging activity was calculated as follows: (Ac−Ai)/Ac × 100%, where Ai and Ac represented the change in absorbance in the presence and absence of the test sample, respectively.

Data set [7] concerns the target T2, AChE (EC 3.1.1.7, from electric eel). The note with it: cited from earlier work.
Data set [8] has as its target T3, BChE (EC 3.1.1.8, from horse serum). The note with it: cited from earlier work.

In brackets after ≈: the same amount, converted by molar mass. Entries after “also recorded” stand apart in the source; their conditions may differ. Read-outs that look alike come from different tables or passages of the source. Marks after values point to notes of the source that are not given here.

By Ki is commonly meant a dissociation constant, usually derived from enzyme kinetics or from competition with a known ligand. Usually solubility stands for the concentration that dissolves in the medium under given conditions. By logP is commonly meant the decadic logarithm of the partition coefficient of the neutral form, usually between octanol and water. As a reminder, the IC50 is the concentration needed to halve the response being measured.

T2 sequence (O42275 24-633): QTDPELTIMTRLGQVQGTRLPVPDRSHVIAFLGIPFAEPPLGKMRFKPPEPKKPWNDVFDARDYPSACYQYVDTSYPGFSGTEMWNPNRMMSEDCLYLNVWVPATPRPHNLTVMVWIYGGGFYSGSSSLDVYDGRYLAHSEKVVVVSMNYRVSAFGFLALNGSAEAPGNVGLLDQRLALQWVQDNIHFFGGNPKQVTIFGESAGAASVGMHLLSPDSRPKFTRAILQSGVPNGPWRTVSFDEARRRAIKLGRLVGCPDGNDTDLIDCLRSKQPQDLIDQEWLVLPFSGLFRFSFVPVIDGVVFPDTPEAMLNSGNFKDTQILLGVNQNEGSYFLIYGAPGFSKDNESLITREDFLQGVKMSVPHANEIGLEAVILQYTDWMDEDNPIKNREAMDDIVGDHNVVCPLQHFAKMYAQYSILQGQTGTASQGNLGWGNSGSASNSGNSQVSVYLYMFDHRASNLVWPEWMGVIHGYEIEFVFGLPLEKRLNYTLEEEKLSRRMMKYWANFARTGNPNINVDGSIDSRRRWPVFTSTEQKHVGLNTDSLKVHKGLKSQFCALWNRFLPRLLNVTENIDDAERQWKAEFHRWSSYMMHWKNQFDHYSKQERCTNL
T1 sequence (O42275 24-633): as above

Turning to `COc1cc2c(Nc3ccccc3)c([N+](=O)[O-])cnc2cc1OCCCN1CCOCC1` [11a, 6-Methoxy-7-(3-Morpholinopropoxy)-3-Nitro-4-Phenylamino-Quinoline], in data set [1], the “type of AChE inhibition” value is given as “mixed-type AChE inhibitors; also recorded: mixed type of inhibition”, the Ki came out at 2.03 µM and the “reversibility of AChE inhibition” value is reported as “reversible inhibitors”. Further, the concentration in solution in data set [2] (solubility at 24 h) came to 620 µg/mL (≈ 1.41 mM). Moreover, the logP at 24 h in data set [3] worked out at 3.82. In addition, in data set [4], the “SI for AChE = IC50 BChE/IC50 AChE” value was determined as 16.37 and the IC50 came to 4.94 ± 0.15 µM. Further, the midpoint of inhibition in data set [5], the IC50, lay at 80.9 ± 2.31 µM.
`COc1cc2c(Nc3ccccc3)c([N+](=O)[O-])cnc2cc1OCCN1CCOCC1` [11g, 6-Methoxy-7-(2-Morpholinoethoxy)-3-Nitro-4-Phenylamino-Quinoline]: in data set [1], the “type of AChE inhibition” value is on record as “mixed-type AChE inhibitors; also recorded: mixed type of inhibition”, the Ki was 0.64 µM and the “reversibility of AChE inhibition” value is on record as “reversible inhibitors”. For the same compound, in data set [2], the solubility at 24 h turned out to be 3030 µg/mL (≈ 7.14 mM). For the same compound, the log partition coefficient (logP) at 24 h in data set [3] amounted to 3.55. This compound also displayed a concentration for half-maximal inhibition (IC50) in data set [4] of 1.94 ± 0.13 µM. For the same compound, in data set [5], the half-maximal inhibitory concentration (IC50) was found to be 28.4 ± 1.85 µM. In data set [6], the “ABTS radical-scavenging IC50” value came to 17.50 ± 2.71 µg/mL and inhibition was half-maximal at 41.2 ± 6.38 µM (IC50).
Regarding `COc1cc2c(Nc3ccccc3)c(N)cnc2cc1OCCCN1CCOCC1` [12a, 6-Methoxy-7-(3-Morpholinopropoxy)-3-Amino-4-Phenylamino-Quinoline], the solubility at 24 h in data set [2] came to 12900 µg/mL (≈ 31.6 mM). For the same compound, the logP at 24 h in data set [3] was 2.07. In addition, the “SI for AChE = IC50 BChE/IC50 AChE” value in data set [4] was found to be 3.34. Also, the IC50 is 9.13 ± 0.42 µM in data set [4] and 30.5 ± 2.48 µM in data set [5].
Taken in the same sequence, the figures for `COc1cc2c(Nc3cccc(Cl)c3)c(N)cnc2cc1OCCCN1CCOCC1` [12c, 6-Methoxy-7-(3-Morpholinopropoxy)-3-Amino-4-(3-Chlorophenylamino)-Quinoline] were 10500 µg/mL (≈ 23.7 mM), 2.35, 1.26, 22.1 ± 0.33 µM and 27.8 ± 2.16 µM.
As for `COc1cc2c(Nc3ccccc3Cl)c([N+](=O)[O-])cnc2cc1OCCCN(C)Cc1ccccc1` [B], in data set [7], the “SI for AChE = IC50 BChE/IC50 AChE” value is on record as 3.08 ^e.
As to `COc1ccc(Nc2c([N+](=O)[O-])cnc3cc(OCCCN4CCC(C)CC4)c(OC)cc23)cc1` [C], in data set [7], the IC50 is 1.2 ± 0.18 µM and the “SI for AChE = IC50 BChE/IC50 AChE” value is given as 15.43 ^f. Besides, the 50% inhibitory concentration (IC50) in data set [8] is 18.5 ± 1.2 µM.
